System: KDM4AJmjC (M1–L359)
Assay: MALDI-TOF demethylation assay, KDM4AJmjC
Type: biochemical, human
Settings: KDM4AJmjC 2.4 µM, peptide 5.0 µM, 1 hr, duplicates
Description: To investigate whether H3KP9me3 can be demethylated by other human KDM4 subfamily members, recombinant KDM4AJmjC (M1–L359) and KDM4DJmjC (M1–L358) were produced in E. coli following an adaption of literature procedures[38],[39]. […] To test the ability of KDM3 and KDM7 subfamily representatives to demethylate H3KP9me2 or H3KP9me3, KDM3AJmjC (T515–S1317) and KDM7BJmjC (M37–N483) were produced using baculovirus/sf9 and E. coli expression systems, respectively[40],[41]. The synthesis of a histone H3 mimic peptide H3KP9me2 substrate is challenging as the tri-alkylated phosphine group is susceptible to oxidation during synthesis of the protected amino acid and during SPPS requiring oxygen-free conditions. Thus, to investigate if KDM3AJmjC or KDM7BJmjC can catalyse demethylation of H3KP9me2, an appropriate H3KP9me2 substrate was prepared in situ from H3KP9me3 using KDM4EJmjC (2.0 µM), in the presence of KDM3AJmjC (2.0 µM) or KDM7BJmjC (2.0 µM).
A Bruker Daltonics MALDI-TOF/TOF AutoflexSpeed machine and Bruker MTP 384 target plates (polished steel BC, Part: 8280781) were used. The machine was controlled using Flex control (v. 3.4 build 135.10) and Compass for flex series (v. 1.4) software. Measurements were in the positive ion mode with the reflectron mode enabled. […] Samples were then analysed by MALDI-TOF. […]

With “ARTKQTAR(KPme3)STGGKA [H3KP9me3, histone H3 residues 1–15 with trimethylphosphonium lysine analogue at position 9]” the “demethylation” value was “substantial turnover to H3KP9me2”.
